Data: ChEMBL document CHEMBL3804786, “Novel 1,3-thiazolidin-4-one derivatives as promising anti-Candida agents endowed with anti-oxidant and chelating properties” (Eur J Med Chem, 2016)
≈ marks a conversion by molar mass, not a printed value.

Experiments:
Proteus mirabilis = experiment: Antibacterial activity against Proteus mirabilis clinical isolate after 18 to 22 hrs by broth microdilution method; type: functional
[1] = system: Streptococcus sp. (viridans group); experiment: Antibacterial activity against Streptococcus alpha-hemolyticus clinical isolate after 18 to 22 hrs by broth microdilution method
Staphylococcus aureus = experiment: Antibacterial activity against Staphylococcus aureus clinical isolate after 18 to 22 hrs by broth microdilution method; type: functional
Pichia kudriavzevii = experiment: Antifungal activity against Candida krusei clinical isolate after 24 hrs by broth microdilution method; type: functional
Enterobacter sp. = experiment: Antibacterial activity against Enterobacter spp. clinical isolate after 18 to 22 hrs by broth microdilution method; type: functional
Enterococcus faecalis = experiment: Antibacterial activity against Streptococcus faecalis clinical isolate after 18 to 22 hrs by broth microdilution method; type: functional
Klebsiella oxytoca = experiment: Antibacterial activity against Klebsiella oxytoca clinical isolate after 18 to 22 hrs by broth microdilution method; type: functional
Candida tropicalis = experiment: Antifungal activity against Candida tropicalis clinical isolate after 24 hrs by broth microdilution method; type: functional
[Candida] sake = Antifungal activity against Candida sake clinical isolate after 24 hrs by broth microdilution method; type: functional; conditions: Fermentozyma sake
Staphylococcus warneri = experiment: Antibacterial activity against Staphylococcus warneri clinical isolate after 18 to 22 hrs by broth microdilution method; type: functional
Candida parapsilosis = experiment: Antifungal activity against Candida parapsilosis clinical isolate after 24 hrs by broth microdilution method; type: functional; conditions: Lodderomyces parapsilosis
Candida albicans = experiment: Antifungal activity against Candida albicans clinical isolate after 24 hrs by broth microdilution method; type: functional
Escherichia coli = experiment: Antibacterial activity against Escherichia coli after clinical isolate 18 to 22 hrs by broth microdilution method; type: functional
Nakaseomyces glabratus = experiment: Antifungal activity against Candida glabrata clinical isolate after 24 hrs by broth microdilution method; type: functional
[2] = Antioxidant activity assessed as ABTS radical scavenging activity after 30 mins under dark conditions; type: physicochemical
[3] = Antioxidant activity of the compound after 90 mins by phosphomolybdenum assay; type: physicochemical
[4] = Cytotoxicity against human Hep2 cells assessed as reduction in cell viability after 24 hrs by trypan blue exclusion assay; type: cell-based, HEp-2
[5] = Cytotoxicity against human Hep2 cells assessed as cell survival at 5 ug/ml after 24 hrs by trypan blue exclusion assay; type: cell-based, HEp-2; conditions: read-out: Survival
[6] = Antioxidant activity of the compound after 30 mins by CUPRAC method; type: physicochemical
[7] = Cytotoxicity against human Hep2 cells assessed as cell survival at 0.05 ug/ml after 24 hrs by trypan blue exclusion assay; type: cell-based, HEp-2; conditions: read-out: Survival
[8] = Cytotoxicity against human Hep2 cells assessed as cell survival at 0.5 ug/ml after 24 hrs by trypan blue exclusion assay; type: cell-based, HEp-2; conditions: read-out: Survival
[9] = Cytotoxicity against human Hep2 cells assessed as cell survival at 10 ug/ml after 24 hrs by trypan blue exclusion assay; type: cell-based, HEp-2; conditions: read-out: Survival
[10] = Antioxidant activity of the compound after 30 mins by FRAP assay; type: physicochemical
[11] = Cytotoxicity against human Hep2 cells assessed as cell survival at 50 ug/ml after 24 hrs by trypan blue exclusion assay; type: cell-based, HEp-2; conditions: read-out: Survival
[12] = Metal chelating activity of the compound assessed as ferrous ion complex formation after 10 mins; type: physicochemical
[13] = Antioxidant activity assessed as DPPH radical scavenging activity after 30 mins under dark conditions; type: physicochemical

Row | Compound | MIC (Proteus mirabilis) [µg/mL] | MIC [1] [µg/mL] | MIC (Staphylococcus aureus) [µg/mL] | MIC (Pichia kudriavzevii) [µg/mL] | MIC (Enterobacter sp.) [µg/mL] | MIC (Enterococcus faecalis) [µg/mL] | MIC (Klebsiella oxytoca) [µg/mL] | MIC (Candida tropicalis) [µg/mL] | MIC ([Candida] sake) [µg/mL] | MIC (Staphylococcus warneri) [µg/mL] | MIC (Candida parapsilosis) [µg/mL] | MIC (Candida albicans) [µg/mL] | MIC (Escherichia coli) [µg/mL] | MIC (Nakaseomyces glabratus) [µg/mL] | IC50 [2] [µM] | EC50 [3] [µM] | EC50 [6] [µM] | EC50 [10] [µM] | IC50 [12] [µM] | IC50 [13] [µM] | other results
1 | C/C(=N/N=C1\SCC(=O)N1Cc1ccc(Cl)cc1)c1cccs1 | > 256 | > 256 | > 256 | 8 (≈ 22 µM) | > 256 | > 256 | > 256 | 8 (≈ 22 µM) | 8 (≈ 22 µM) | > 256 | 4 (≈ 11 µM) | 4 (≈ 11 µM) | > 256 | 2 (≈ 5.5 µM) |  |  |  |  |  |  | 
2 | C/C(=N\N=C1/SCC(=O)N1Cc1cccc(Cl)c1)c1ccccn1 | > 256 | > 256 | > 256 | 4 (≈ 11.1 µM) | > 256 | > 256 | > 256 | 2 (≈ 5.57 µM) | 16 (≈ 44.6 µM) | > 256 | 2 (≈ 5.57 µM) | 2 (≈ 5.57 µM) | > 256 | 2 (≈ 5.57 µM) | 26800 | 2040 | 1400 | 4930 | 2760 | > 5000 | CC50 at 24 h [4]: 21 µg/mL (≈ 58.5 µM); viability at 24 h, 5 ug/ml [5]: 85%; viability at 24 h, 0.05 ug/ml [7]: 94%; viability at 24 h, 0.5 ug/ml [8]: 87.5%; viability at 24 h, 10 ug/ml [9]: 69%; viability at 24 h, 50 ug/ml [11]: 0%
3 | C/C(=N/N=C1\SCC(=O)N1Cc1ccc(Cl)cc1)c1ccccn1 | > 256 | > 256 | > 256 | 8 (≈ 22.3 µM) | > 256 | > 256 | > 256 | 8 (≈ 22.3 µM) | 8 (≈ 22.3 µM) | > 256 | 4 (≈ 11.1 µM) | 8 (≈ 22.3 µM) | > 256 | 4 (≈ 11.1 µM) |  |  |  |  |  |  | 
4 | C/C(=N\N=C1/SCC(=O)N1Cc1ccccc1F)c1cccs1 | > 256 | > 256 | > 256 | 4 (≈ 11.5 µM) | > 256 | > 256 | > 256 | 2 (≈ 5.76 µM) | 2 (≈ 5.76 µM) | > 256 | 4 (≈ 11.5 µM) | 2 (≈ 5.76 µM) | > 256 | 4 (≈ 11.5 µM) | 15700 | 1260 | 2400 | 2130 | 3840 | > 5000 | CC50 at 24 h [4]: 15 µg/mL (≈ 43.2 µM); viability at 24 h, 5 ug/ml [5]: 62%; viability at 24 h, 0.05 ug/ml [7]: 91%; viability at 24 h, 0.5 ug/ml [8]: 80%; viability at 24 h, 10 ug/ml [9]: 41%; viability at 24 h, 50 ug/ml [11]: 0%
5 | C/C(=N/N=C1\SCC(=O)N1Cc1ccc(F)cc1)c1cccs1 | > 256 | > 256 | > 256 | 2 (≈ 5.76 µM) | > 256 | > 256 | > 256 | 2 (≈ 5.76 µM) | 8 (≈ 23 µM) | > 256 | 4 (≈ 11.5 µM) | 2 (≈ 5.76 µM) | > 256 | 2 (≈ 5.76 µM) | 21500 | 1370 | 1850 | 2020 | 3900 | > 5000 | CC50 at 24 h [4]: 15 µg/mL (≈ 43.2 µM); viability at 24 h, 5 ug/ml [5]: 68%; viability at 24 h, 0.05 ug/ml [7]: 83%; viability at 24 h, 0.5 ug/ml [8]: 76%; viability at 24 h, 10 ug/ml [9]: 52%; viability at 24 h, 50 ug/ml [11]: 0%
6 | C/C(=N\N=C1/SCC(=O)N1Cc1cccc(Cl)c1)c1cccs1 | > 256 | > 256 | > 256 | 2 (≈ 5.5 µM) | > 256 | > 256 | > 256 | 2 (≈ 5.5 µM) | 2 (≈ 5.5 µM) | > 256 | 2 (≈ 5.5 µM) | 2 (≈ 5.5 µM) | > 256 | 2 (≈ 5.5 µM) | 20300 | 1160 | 1590 | 2320 | 1640 | > 5000 | CC50 at 24 h [4]: 21 µg/mL (≈ 57.7 µM); viability at 24 h, 5 ug/ml [5]: 82%; viability at 24 h, 0.05 ug/ml [7]: 94%; viability at 24 h, 0.5 ug/ml [8]: 89%; viability at 24 h, 10 ug/ml [9]: 63%; viability at 24 h, 50 ug/ml [11]: 0%
7 | Nc1ccc(CN2C(=O)CS/C2=N\N=C2CCCC2)cc1 | > 256 | > 256 | > 256 | 16 (≈ 52.9 µM) | > 256 | > 256 | > 256 | 32 (≈ 106 µM) | 256 (≈ 847 µM) | > 256 | 64 (≈ 212 µM) | 2 (≈ 6.61 µM) | > 256 | 16 (≈ 52.9 µM) |  |  |  |  |  |  | 
8 | CC(C)=N/N=C1\SCC(=O)N1Cc1ccc(N)cc1 | > 256 | > 256 | > 256 | 2 (≈ 7.24 µM) | > 256 | > 256 | > 256 | 32 (≈ 116 µM) | 4 (≈ 14.5 µM) | > 256 | 2 (≈ 7.24 µM) | 4 (≈ 14.5 µM) | > 256 | 1 (≈ 3.62 µM) | 2040 | 1200 | 1770 | 2760 | > 5000 | > 5000 | 
9 | C/C(=N\N=C1/SCC(=O)N1Cc1cccc(F)c1)c1cccs1 | > 256 | > 256 | > 256 | 2 (≈ 5.76 µM) | > 256 | > 256 | > 256 | 2 (≈ 5.76 µM) | 2 (≈ 5.76 µM) | > 256 | 2 (≈ 5.76 µM) | 2 (≈ 5.76 µM) | > 256 | 8 (≈ 23 µM) | 21100 | 1360 | 2550 | 2620 | 4640 | > 5000 | CC50 at 24 h [4]: 6 µg/mL (≈ 17.3 µM); viability at 24 h, 5 ug/ml [5]: 42%; viability at 24 h, 0.05 ug/ml [7]: 80%; viability at 24 h, 0.5 ug/ml [8]: 68%; viability at 24 h, 10 ug/ml [9]: 0%; viability at 24 h, 50 ug/ml [11]: 0%
10 | C/C(=N/N=C1\SCC(=O)N1Cc1ccc(F)cc1)c1ccccn1 | > 256 | > 256 | > 256 | 8 (≈ 23.4 µM) | > 256 | > 256 | > 256 | 2 (≈ 5.84 µM) | 2 (≈ 5.84 µM) | > 256 | 4 (≈ 11.7 µM) | 2 (≈ 5.84 µM) | > 256 | 2 (≈ 5.84 µM) | 16100 | 1160 | 1750 | 6220 | 3670 | > 5000 | CC50 at 24 h [4]: 16 µg/mL (≈ 46.7 µM); viability at 24 h, 5 ug/ml [5]: 70%; viability at 24 h, 0.05 ug/ml [7]: 91%; viability at 24 h, 0.5 ug/ml [8]: 83%; viability at 24 h, 10 ug/ml [9]: 42%; viability at 24 h, 50 ug/ml [11]: 0%
11 | C/C(=N/N=C1\SCC(=O)N1Cc1ccc(N)cc1)c1cccs1 | > 256 | > 256 | > 256 | 8 (≈ 23.2 µM) | > 256 | > 256 | > 256 | 2 (≈ 5.81 µM) | 2 (≈ 5.81 µM) | > 256 | 8 (≈ 23.2 µM) | 4 (≈ 11.6 µM) | > 256 | 8 (≈ 23.2 µM) |  |  |  |  |  |  | 
12 | C/C(=N/N=C1\SCC(=O)N1Cc1ccc(N)cc1)c1ccccn1 | > 256 | > 256 | > 256 | 8 (≈ 23.6 µM) | > 256 | > 256 | > 256 | 2 (≈ 5.89 µM) | 2 (≈ 5.89 µM) | > 256 | 8 (≈ 23.6 µM) | 2 (≈ 5.89 µM) | > 256 | 8 (≈ 23.6 µM) |  |  |  |  |  |  | 
13 | CC(C)=N/N=C1\SCC(=O)N1Cc1ccccc1[N+](=O)[O-] | > 256 | > 256 | > 256 | 2 (≈ 6.53 µM) | > 256 | > 256 | > 256 | 8 (≈ 26.1 µM) | 4 (≈ 13.1 µM) | > 256 | 16 (≈ 52.2 µM) | 2 (≈ 6.53 µM) | > 256 | 4 (≈ 13.1 µM) |  |  |  |  |  |  | 
14 | Clc1ccccc1C(c1ccccc1)(c1ccccc1)n1ccnc1 [CLOTRIMAZOLE] |  |  |  | 2 (≈ 5.8 µM) |  |  |  | 2 (≈ 5.8 µM) | 2 (≈ 5.8 µM) |  | 2 (≈ 5.8 µM) | 2 (≈ 5.8 µM) |  | 2 (≈ 5.8 µM) |  |  |  |  |  |  | CC50 at 24 h [4]: 18 µg/mL (≈ 52.2 µM); viability at 24 h, 50 ug/ml [11]: 10.2%
15 | O=C(O)CN(CCN(CC(=O)O)CC(=O)O)CC(=O)O [EDETIC ACID] |  |  |  |  |  |  |  |  |  |  |  |  |  |  |  |  |  |  | 20 |  | 
16 | Cc1c(C)c2c(c(C)c1O)CCC(C)(C(=O)O)O2 (centres undefined) [TROLOX] |  |  |  |  |  |  |  |  |  |  |  |  |  |  | 660 | 1130 | 240 | 160 |  | 400 | 
